Experimental data: the supplement of paper PMC10307832

What was measured:
Assay in all cases: relative viability (nuclei count vs DMSO), 5 days (fraction); higher = more cells survive
[1] = compound: N#CC[C@H](C1CCCC1)n1cc(-c2ncnc3[nH]ccc23)cn1 [Ruxolitinib] + Cc1nc(NC(=O)N2CCC[C@H]2C(N)=O)sc1-c1ccnc(C(C)(C)C(F)(F)F)c1 [Alpelisib] (partner 2 µM)
Summary of the method: (§1)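 Relative viability was taken as the ratio of nuclei in treated wells to nuclei in vehicle wells. Lung cancer cell lines in 1536-well plates received compounds by pin tool one day after seeding, either one drug alone or a fixed anchor-drug dose plus five library-drug doses (not always all listed) in √10 steps. Nuclei were counted on 4× images after 5 days of treatment, and values are medians of duplicate plates.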

[2] = compound: CS(=O)(=O)c1ccc(-c2cnc(N)c(C(=O)Nc3ccccc3)n2)cc1 [VE-821] + Nc1nc2[nH]cc(CCc3ccc(C(=O)N[C@@H](CCC(=O)O)C(=O)O)cc3)c2c(=O)[nH]1 [Pemetrexed] (partner 0.2 µM)
Summary of the method: as §1

[3] = compound: N#CC[C@H](C1CCCC1)n1cc(-c2ncnc3[nH]ccc23)cn1 [Ruxolitinib] + Nc1ncn([C@H]2C[C@H](O)[C@@H](CO)O2)c(=O)n1 [Decitabine] (partner 2 µM)
Summary of the method: as §1

[4] = compound: CS(=O)(=O)c1ccc(-c2cnc(N)c(C(=O)Nc3ccccc3)n2)cc1 [VE-821] + CC(=O)Nc1cccc(-n2c(=O)n(C3CC3)c(=O)c3c(Nc4ccc(I)cc4F)n(C)c(=O)c(C)c32)c1 [Trametinib] (partner 0.02 µM)
Summary of the method: as §1

| Cell Line | relative viability ([1]; first compound 0.08 µM) | relative viability ([1]; first compound 0.253 µM) | relative viability ([1]; first compound 0.8 µM) | relative viability ([1]; first compound 2.53 µM) | relative viability ([1]; first compound 8 µM) | relative viability ([2]; first compound 0.08 µM) | relative viability ([2]; first compound 0.253 µM) | relative viability ([2]; first compound 0.8 µM) | relative viability ([2]; first compound 2.53 µM) | relative viability ([2]; first compound 8 µM) | relative viability ([3]; first compound 0.08 µM) | relative viability ([3]; first compound 0.253 µM) | relative viability ([3]; first compound 0.8 µM) | relative viability ([3]; first compound 2.53 µM) | relative viability ([3]; first compound 8 µM) | relative viability ([4]; first compound 0.08 µM) | relative viability ([4]; first compound 0.253 µM) | relative viability ([4]; first compound 0.8 µM) | relative viability ([4]; first compound 2.53 µM) | relative viability ([4]; first compound 8 µM) |
| --- | --- | --- | --- | --- | --- | --- | --- | --- | --- | --- | --- | --- | --- | --- | --- | --- | --- | --- | --- | --- |
| LCLC-103H | 1.02 | 0.875 | 1.08 | 1.03 | 1.02 | 0.47 | 0.439 | 0.518 | 0.475 | 0.437 | 0.83 | 0.775 | 0.802 | 0.656 | 0.658 | 0.748 | 0.662 | 0.675 | 0.68 | 0.663 |
| COR-L 105 | 0.771 | 1.03 | 0.84 | 0.86 | 0.718 | 1.07 | 0.965 | 0.74 | 1.04 | 0.712 |  | 0.57 | 0.656 | 0.659 | 0.58 | 0.463 | 0.412 | 0.483 | 0.4 | 0.449 |
| H3255 |  | 0.599 | 0.749 | 0.521 | 0.608 | 0.6 | 0.583 | 0.61 | 0.604 | 0.517 |  | 0.568 | 0.781 | 0.535 | 0.609 | 0.666 | 0.646 | 0.619 | 0.88 | 0.63 |
| NCI-H441 | 0.665 | 0.52 | 0.71 | 0.553 | 0.565 | 0.283 | 0.264 | 0.24 | 0.276 | 0.264 | 0.244 | 0.238 | 0.21 | 0.16 | 0.26 | 0.547 | 0.516 | 0.371 | 0.57 | 0.38 |
| NCI-H2347 | 0.949 | 0.999 | 1.17 | 0.984 | 1.19 | 0.482 | 0.45 | 0.418 | 0.445 | 0.526 | 0.614 | 0.602 | 0.65 | 0.563 | 0.62 | 0.298 | 0.276 | 0.289 | 0.292 | 0.324 |
| HCC-827 |  | 0.679 | 0.72 | 0.794 | 0.887 | 0.248 | 0.306 | 0.251 | 0.23 | 0.213 |  | 0.325 | 0.364 | 0.253 | 0.305 | 0.613 | 0.524 | 0.565 | 0.52 | 0.499 |
| NCI-H520 |  | 0.837 | 1.04 | 0.988 | 0.756 | 0.75 | 0.657 | 0.582 | 0.361 | 0.223 | 0.506 | 0.484 | 0.553 | 0.47 | 0.525 | 0.752 | 0.744 | 0.654 | 0.752 | 0.44 |
| A-427 | 1.09 | 1.03 | 1.07 | 1.06 | 1.03 | 0.997 | 0.949 | 0.947 | 0.998 | 0.474 | 0.566 | 0.558 | 0.579 | 0.605 | 0.58 | 0.868 | 0.676 | 0.812 | 0.686 | 0.495 |
| NCI-H650 |  | 1.33 | 1.23 | 0.964 | 0.667 | 0.934 | 0.846 | 1.02 | 0.9 | 0.835 | 0.364 | 0.38 | 0.28 | 0.342 | 0.332 | 0.99 | 1.01 | 1.11 | 1.02 | 1.08 |
| NCI-H1793 | 0.539 | 0.654 | 0.789 | 0.83 | 0.679 | 1.2 | 0.769 |  | 1.13 | 0.565 | 0.436 | 0.502 | 0.488 | 0.392 | 0.413 | 0.605 | 0.408 |  | 0.526 | 0.618 |
| NCI-H23 | 0.611 | 0.726 | 0.801 | 0.72 | 0.535 | 0.919 | 0.838 | 0.55 | 0.463 | 0.272 | 0.311 | 0.337 | 0.359 | 0.275 | 0.305 | 0.459 | 0.457 | 0.34 | 0.278 | 0.272 |
| SK-LU-1 | 1.18 | 1.05 | 1.11 | 0.823 | 0.623 | 0.971 | 0.943 | 0.917 | 0.672 | 0.4 | 0.547 | 0.693 | 0.755 | 0.522 | 0.622 | 0.495 | 0.53 | 0.387 | 0.547 | 0.291 |
| NCI-H1395 |  | 1.27 | 1.21 | 1.02 | 0.892 | 0.792 | 0.789 | 0.827 | 0.745 | 0.486 | 0.698 | 0.697 | 0.77 | 0.69 | 0.686 | 1.11 | 0.988 | 0.913 | 1.02 | 0.763 |
| NCI-H2170 | 0.891 | 0.857 | 0.753 | 0.821 | 0.737 | 0.277 | 0.23 | 0.281 | 0.234 | 0.177 | 0.499 | 0.436 | 0.496 | 0.425 | 0.427 | 0.977 | 0.865 | 0.947 | 0.819 | 0.629 |
| LOU-NH91 | 0.569 | 0.674 | 0.796 | 0.736 | 0.694 | 0.385 | 0.355 | 0.345 | 0.323 | 0.4 | 0.684 | 0.813 | 0.829 | 0.782 | 0.798 | 0.813 | 0.784 | 0.776 | 0.821 | 0.752 |
| NCI-H647 | 1.33 | 1.11 | 1.15 | 0.941 | 0.643 | 0.157 | 0.139 | 0.125 | 0.0986 | 0.0738 | 0.45 | 0.351 | 0.433 | 0.28 | 0.344 | 0.62 | 0.419 | 0.352 | 0.389 | 0.234 |
| LXF-289 | 1.01 | 1 | 1.04 | 0.948 | 0.815 | 0.902 | 0.928 | 0.936 | 1.01 | 0.847 | 0.369 | 0.426 | 0.353 | 0.363 | 0.371 | 0.708 | 0.641 | 0.773 | 0.745 | 0.741 |
